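Where inhibition never reached the appropriate level, the endpoint shown equals the highest concentration tested. Otherwise, values were interpolated linearly from a five-concentration, 48-hour dose response in 96-well plates. GI50 marks 50% less growth. Definition used: TGI = concentration required for complete inhibition of growth.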
What was measured:
Experiment in all cases: NCI tumour cell line growth inhibition, 48 h
HCT-15 colon = tested on: HCT-15 colon
U251 CNS = tested on: U251 CNS
SNB-75 CNS = tested on: SNB-75 CNS
UACC-257 melanoma = tested on: UACC-257 melanoma
SK-MEL-2 melanoma = tested on: SK-MEL-2 melanoma
IGROV1 ovarian = tested on: IGROV1 ovarian
SK-OV-3 ovarian = tested on: SK-OV-3 ovarian
MDA-MB-435 = tested on: MDA-MB-435
K-562 leukemia = tested on: K-562 leukemia
HOP-92 NSCLC = tested on: HOP-92 NSCLC

Compound	GI50 (HCT-15 colon) [µM]	TGI (HCT-15 colon) [µM]	GI50 (U251 CNS) [µM]	TGI (U251 CNS) [µM]	GI50 (SNB-75 CNS) [µM]	TGI (SNB-75 CNS) [µM]	GI50 (UACC-257 melanoma) [µM]	TGI (UACC-257 melanoma) [µM]	GI50 (SK-MEL-2 melanoma) [µM]	TGI (SK-MEL-2 melanoma) [µM]	GI50 (IGROV1 ovarian) [µM]	TGI (IGROV1 ovarian) [µM]	GI50 (SK-OV-3 ovarian) [µM]	TGI (SK-OV-3 ovarian) [µM]	GI50 (MDA-MB-435) [µM]	TGI (MDA-MB-435) [µM]	GI50 (K-562 leukemia) [µM]	TGI (K-562 leukemia) [µM]	GI50 (HOP-92 NSCLC) [µM]	TGI (HOP-92 NSCLC) [µM]
CO/N=C(/COc1c(-c2ccccc2)oc2ccccc2c1=O)c1ccc(F)cc1	> 100	> 100	33.9	> 100	28	81.1	> 100	> 100	58.4	> 100	22.1	90.7	62.4	> 100	> 100	> 100	> 100	> 100	–	–
O=[N+]([O-])/C=C/c1ccc([N+](=O)[O-])cc1	2.02	5.58	1.78	3.52	1.87	4.02	1.88	5.01	14.3	28.1	2.06	5.29	4.15	14.4	1.74	3.99	2.4	12.4	13	28.9
CCCCCCN1CCN(Cc2ccc(N(CC)CC)cc2)C(=O)C1=O	1.07	> 100	3.99	62.3	1.95	13.1	16.9	> 100	3.57	21.2	6.63	> 100	3.61	> 100	0.448	2.38	0.832	75.4	4.21	38.2
c1cncc(CNc2ncn[nH]2)c1	–	> 100	–	> 100	–	> 100	–	> 100	–	> 100	–	> 100	–	> 100	–	> 100	–	> 100	–	> 100
CC(C)=CC1CC(C)C2(CCC3(C)CC4C(C(=O)CC4(C)O)/C(C=O)=C\CC32)O1 (centres undefined)	–	0.105	–	0.197	–	0.237	–	0.28	–	0.316	–	0.296	–	0.297	–	0.197	–	0.232	–	0.2
O=C(/C=C\c1ccc2ccccc2n1)c1cc(Cl)ccc1O	2.43	8.86	2.31	5.2	6.58	21	24.3	63.2	11.7	45.2	5.21	22.6	61.4	> 100	3.66	21.7	3.46	23.2	1.82	9.35
N=C(N)c1ccc(-c2ccc(-c3ccc(F)cc3)o2)o1	0.631	2.08	1.6	3.08	1.55	3.49	1.98	3.69	1.76	3.39	1.58	3.35	2.32	7.14	0.347	1.3	–	–	1.21	2.95
COc1ccc(-n2c3c(c4c(CN(C)C)c(O)c(C)cc42)CCc2ccccc2C3=O)cc1	28.7	> 100	28.3	> 100	–	–	78.1	> 100	48	> 100	21	85.2	> 100	> 100	14	40.4	18.7	44.4	41.9	> 100
O=C1OCC2=C1C(c1cccc(C(F)(F)F)c1)c1cc3c(cc1N2CCO)CCC3 (centres undefined)	0.15	6.02	0.199	7.92	–	–	6.5	15.2	0.34	10.6	0.312	8.25	0.179	8.64	0.05	0.159	0.174	28.1	1.74	10.3
Cc1ccc2[nH]c(C(=O)NN3C(=O)C(C)SC34CCCCC4C)c(-c3ccccc3)c2c1 (centres undefined)	18	38.5	16.1	32.8	21.2	41.7	20.4	37.6	12	26.5	–	–	37.9	> 100	16.4	33.1	18.5	60	19.5	38.5
COc1cc2c3c(n(C)c(=O)c2cc1OC)-c1cc2c(cc1/C3=C/[C@H](N)CCCCN)OCO2	6.8	> 86.4	–	–	3.74	27.7	1.98	11.1	2.68	8.98	1.27	7.43	1.4	> 24.7	0.293	4.69	4.68	> 100	4.48	> 50.9
O=[N+]([O-])c1ccc(N=Nc2c(O)[nH]c3ccccc23)cc1	–	> 100	–	> 100	–	42.6	–	> 60.1	–	> 100	–	41.4	–	65.3	–	> 100	–	> 84.6	–	–
COc1ccc2c(c1)[C@@]1(C)CCC3c4ccc(O)cc4CCC3C1C2 (some centres undefined)	12.3	28	15.6	29.9	16.6	30.9	17.7	33.7	–	–	20.6	48.2	15.7	29.6	15	31	14.8	48.4	17.2	33.9
Cc1ccc(Oc2nc3ccccc3cc2-c2nnc(Cn3c(COc4ccccc4)nc4ccccc43)o2)cc1	2.14	7.69	1.58	3.62	2.16	9.74	3.28	14.9	–	–	3.25	22	11.8	32.7	3.06	11.9	2.59	> 100	1.27	5.37
CC(=O)OC12CC(C)C3(O)C4C=C(C)C(=O)[C@@]4(O)CC(CO)=C[C@H]3C1C2(C)C (some centres undefined)	> 1000	> 1000	> 1000	> 1000	> 1000	> 1000	> 1000	> 1000	> 1000	> 1000	> 1000	> 1000	–	> 1000	0.205	–	–	–	45.4	> 1000

— PubChem BioAssay (NCI)
